The text below walks through data of patent US20260297016A1, “THERAPEUTIC COMPOUNDS” (REGENTS OF THE UNIVERSITY OF MINNESOTA, priority 2023, published 2026).

“Also recorded” adds a separate entry of the source.

Assay [1] concerns the target T1, STING (Homo sapiens, UniProt Q86WV6, G230A/H232R/R293Q/R71H).
T1 construct: THP-1 Lucia ISG cells (InvivoGen, thpl-isg); host or cells: THP-1 Lucia ISG cells
Description: IRF-Lucia Reporter STING Inhibition Assay (THP-1 Lucia ISG cells). In kind it is cell-based. Conditions: 1 μM 2,3-cGAMP, 20 hours. How it is done: IRF-Lucia Reporter STING Inhibition Assay. […] Cells were incubated at 37° C. in a 5% CO2 atmosphere with varying concentrations of test compound for 1.5 hours, followed by treatment with 1 μM 2,3-cGAMP (InvivoGen, tlrl-nacga23-02) and incubated for 20 hours. A 20 μL aliquot of cell suspension was added to 50 μL. QUANTI-Luc™ reagent (InvivoGen, rep-qlc4lg2), and the resulting luminescence is measured by a GloMax Explorer (Promega) with a 0.1 second read time.

In assay [2] the test system is HMC3 cells. The conditions noted are these: 12.5 μM, 200 μM TBHP.
The test system of assay [3] is 661 W cells. Description: Viability of 661 W cells after H2O2 (trypan blue exclusion).
For assay [4], the system named is 661 W cells. In words: Viability of 661 W cells after 4-HNE (trypan blue exclusion).
The test system of assay [5] is 661 W cells. Description: 4-HNE-induced ROS production in 661 W cells. The conditions noted are these: 12.5 μM, 2 hours, 4-HNE 10 μM, 24 hours, n=6.
Assay [6] concerns 661 W cells. The conditions noted are these: 12.5 μM, 2 hours, H2O2 500 μM, 24 hours, n=6.
In assay [7] the test system is patients with type 2 diabetes. The conditions noted are these: orally administered, FIELD and ACCORD; cited from earlier work.
Assay [8] relates to PPARα. Conditions: cited from earlier work.
In assay [9] the test system is PPAR subtypes. The conditions noted are these: cited from earlier work.

T1 sequence (Q86WV6 whole entry R71H/G230A/H232R/R293Q): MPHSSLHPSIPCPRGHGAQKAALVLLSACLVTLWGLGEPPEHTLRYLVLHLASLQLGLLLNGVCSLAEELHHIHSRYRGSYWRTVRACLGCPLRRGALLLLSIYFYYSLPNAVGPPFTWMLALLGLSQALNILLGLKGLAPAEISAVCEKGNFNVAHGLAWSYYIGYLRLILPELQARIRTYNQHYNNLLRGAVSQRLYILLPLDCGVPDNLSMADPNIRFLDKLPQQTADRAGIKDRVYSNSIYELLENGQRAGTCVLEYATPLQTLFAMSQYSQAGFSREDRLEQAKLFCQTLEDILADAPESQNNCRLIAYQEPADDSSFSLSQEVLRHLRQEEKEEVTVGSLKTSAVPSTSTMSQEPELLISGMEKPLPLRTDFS

Take `O=C(O)c1cc(NCc2ccc(-c3ccc(C(F)(F)F)cc3)cc2)ccc1O` [Example 32, 2-hydroxy-5-(((4′-(trifluoromethyl)-[1,1′-biphenyl]-4-yl)methyl)amino)benzoic acid]: in assay [1], the “% STING INHIBITION, % at 12.5 μm” value stood at 28%; the “% STING INHIBITION, % at 25 μm” value came to 43%; the “% STING INHIBITION, % at 50 μm” value stood at 64%.
On to `COc1ccc(-c2ccc(CNc3ccc(O)c(C(=O)O)c3)cc2)cc1` [Example 33], for which, in [1], the “% STING INHIBITION, % at 12.5 μm” value turned out to be 0%; the “% STING INHIBITION, % at 25 μm” value came out at 0%; the “% STING INHIBITION, % at 50 μm” value was determined as 0%.
Regarding `CS(=O)(=O)c1ccc(-c2ccc(CNc3ccc(O)c(C(=O)O)c3)cc2)cc1` [Example 34, 2-Hydroxy-5-(((4′-(methylsulfonyl)-[1,1′-biphenyl]-4-yl)methyl)amino)benzoic acid], in assay [1], the “% STING INHIBITION, % at 12.5 μm” value is recorded as 0%; the “% STING INHIBITION, % at 25 μm” value worked out at 0%; the “% STING INHIBITION, % at 50 μm” value was determined as 0%.
Consider `O=C(O)c1cc(NCc2ccc(-c3ccc(O)cc3)cc2)ccc1O` [Example 35, 2-Hydroxy-5-(((4′-hydroxy-[1,1′-biphenyl]-4-yl)methyl)amino)benzoic acid], for which, in assay [1], the “% STING INHIBITION, % at 12.5 μm” value came to 0%; the “% STING INHIBITION, % at 25 μm” value is on record as 0%; the “% STING INHIBITION, % at 50 μm” value is recorded as 0%.
For `CC(C)(C)c1ccc(-c2ccc(CNc3ccc(O)c(C(=O)O)c3)cc2)cc1` [Example 36, 5-(((4′-(tert-Butyl)-[1,1′-biphenyl]-4-yl)methyl)amino)-2-hydroxybenzoic acid], in assay [1], the “% STING INHIBITION, % at 12.5 μm” value is given as 0%; the “% STING INHIBITION, % at 25 μm” value was determined as 0%; the “% STING INHIBITION, % at 50 μm” value is more than 95%.
Take `O=C(O)c1cc(NCc2ccc(-c3ccccc3)cc2)ccc1O` [Example 37, 5-(([1,1′-Biphenyl]-4-ylmethyl)amino)-2-hydroxybenzoic acid]: in assay [1], the “% STING INHIBITION, % at 12.5 μm” value is recorded as 0%; the “% STING INHIBITION, % at 25 μm” value was determined as 28%; the “% STING INHIBITION, % at 50 μm” value is recorded as 66%.
For `O=C(O)c1cc(NCc2ccc(-c3ccc(F)c([N+](=O)[O-])c3)cc2)ccc1O` [Example 38, 5-(((4′-Fluoro-3′-nitro-[1,1′-biphenyl]-4-yl)methyl)amino)-2-hydroxybenzoic acid] the same measures were 0%, 39% and 90%.
For `COc1cc(F)ccc1-c1ccc(CNc2ccc(O)c(C(=O)O)c2)cc1` [Example 39, 5-(((4′-Fluoro-2′-methoxy-[1,1′-biphenyl]-4-yl)methyl)amino)-2-hydroxybenzoic acid] the same measures were 0%, 0% and 0%.
Consider `Cc1cc(F)ccc1-c1ccc(CNc2ccc(O)c(C(=O)O)c2)cc1` [Example 41, 5-(((4′-Fluoro-2′-methyl-[1,1′-biphenyl]-4-yl)methyl)amino)-2-hydroxybenzoic acid], for which, in [1], the “% STING INHIBITION, % at 12.5 μm” value is on record as 25%; the “% STING INHIBITION, % at 25 μm” value stood at 47%; the “% STING INHIBITION, % at 50 μm” value came out at 80%.
For `COc1ccc(NCc2ccc(-c3ccc(F)cc3)cc2)cc1C#N` [Example 43, 5-(((4′-Fluoro-[1,1′-biphenyl]-4-yl)methyl)amino)-2-methoxybenzonitrile] the same measures were 0%, 0% and 0%.
Taken in the same sequence, the figures for `Cc1cc(-c2ccc(CNc3ccc(O)c(C(=O)O)c3)cc2)ccc1F` [Example 44, 5-(((4′-Fluoro-3′-methyl-[1,1′-biphenyl]-4-yl)methyl)amino)-2-hydroxybenzoic acid] were 0%, 12% and 81%.
Taken in the same sequence, the figures for `O=C(O)c1cc(O)cc(NCc2ccc(-c3ccc(F)cc3)cc2)c1` [Example 45, 3-(((4′-Fluoro-[1,1′-biphenyl]-4-yl)methyl)amino)-5-hydroxybenzoic acid] were 9%, 50% and 80%.
Take `COc1ccc(NCc2ccc(-c3ccc(F)cc3)cc2)cc1C(=O)O` [Example 46, 5-(((4′-fluoro-[1,1′-biphenyl]-4-yl)methyl)amino)-2-methoxybenzoic acid]: in assay [1], the “% STING INHIBITION, % at 12.5 μm” value is reported as 9%; the “% STING INHIBITION, % at 25 μm” value is reported as 31%; the “% STING INHIBITION, % at 50 μm” value is reported as 53%.
With `N#Cc1cc(NCc2ccc(-c3ccc(F)cc3)cc2)ccc1O` [Example 47, 5-(((4′-Fluoro-[1,1′-biphenyl]-4-yl)methyl)amino)-2-hydroxybenzonitrile], in [1], the “% STING INHIBITION, % at 12.5 μm” value was determined as 40%; the “% STING INHIBITION, % at 25 μm” value is reported as 80%; the “% STING INHIBITION, % at 50 μm” value stood at 99%.
Taken in the same sequence, the figures for `Oc1ccc(NCc2ccc(-c3ccc(F)cc3)cc2)cc1-c1nnn[nH]1` [Example 48] were 0%, 32% and 77%.
For `O=C(Nc1ccc(O)c(NS(=O)(=O)c2ccc(F)cc2)c1)c1ccc(-c2ccccc2)cc1` [SN-011], in assay [2], the “TBHP-induced production of ROS (oxidative stress)” value is on record as “greater reduction in oxidative stress than PPARα agonism (Example 31 (BH400)”. In addition, the “cell viability after H2O2” value in [3] (1 μM and 10 μM, H2O2 500 μM, 24 hours, n=3) is “fails to show a dose-response improvement between 1 μM and 10 μM; also recorded: Improvement in cell viability”; in assay [3] (1 μM, SN-011 vs Example 31) it was “no significant difference”. Moreover, the “cell viability after 4-HNE” value in [4] (1 μM and 10 μM, 4-HNE 10 μM, 24 hr, n=3) was “fails to show a dose-response improvement between 1 μM and 10 μM; also recorded: Improvement in cell viability”; in [4] (1 μM, SN-011 vs Example 31) it was “no significant difference”. Moreover, the “4-HNE-induced production of ROS” value in assay [5] is “the difference between SN011 and Example 17 is less pronounced”. In assay [6], the “H2O2-induced ROS production” value is “the difference between SN011 and Example 17 is less pronounced”.
For the compound `CC(C)OC(=O)C(C)(C)Oc1ccc(C(=O)c2ccc(Cl)cc2)cc1` [fenofibrate], the “progression of DR and other microvascular endpoints” value in assay [7] was “significantly reduced the progression of DR and other microvascular endpoints”. Moreover, the “affinity for PPARα” value in assay [8] was “low affinity for PPARα”. Further, in assay [9], the “selectivity among PPAR subtypes” value is given as “lack of selectivity among PPAR subtypes”.
With `CC(C)(Oc1ccc(C(=O)c2ccc(Cl)cc2)cc1)C(=O)O` [fenofibric acid], the “agonism of PPARα by major metabolite” value in assay [8] (major metabolite of fenofibrate) was “agonism of PPARα”.
